Data reported in US20100285146A1, “PEPTIDES AND METHODS FOR THE TREATMENT OF SYSTEMIC LUPUS ERYTHEMATOSUS” (priority 2007, published 2010).
Each block holds one compound with its values, some of them ahead of it. No end group written: not given here.

What was measured:
[1] = test system: C72 murine anti-DNA antibody; experiment: Anti-peptide direct binding ELISA with C72; settings: for C72 Binding: direct binding ELISA, footnote: O.D. after one (1) hour
Procedure: (§1) Wells were coated with 10 μg/ml of the peptides, blocked with 1% BSA (bovine serum albumin) in PBS (pH 7.4), reacted with appropriately diluted plasma or monoclonal antibodies, incubated with anti-human or anti-mouse immunoglobulin enzyme conjugated to alkaline phosphatase and detected by addition of substrate (Sigma 100 Phosphatase Substrate Tablets) and color development using an Organon Teknika Microwell System spectrometer at wavelength of 405 nm.
(§2) The interaction of the C72 murine anti-DNA antibody with laminin peptides was analyzed by ELISA as described above. The C72 conditioned medium was diluted in PBS in various dilutions.
(§3) The peptides of the present invention were tested for their ability to bind directly with C72 murine anti-DNA antibodies and B3 human anti-DNA antibodies according to the method described hereinabove.

[2] = test system: B3 human anti-DNA antibodies; experiment: Anti-peptide direct binding ELISA with B3; settings: for B3 Binding: direct binding ELISA, footnote: O.D. after two (2) hours
Procedure: as §1
(§4) The human monoclonal anti-DNA antibodies DIL 6 and B3 were derived from lupus patients by the hybridoma technique. […] In FIGS. 3 and 4, the peptides are referred to as denoted above or as follows; AS30 is R27, AS19 is R35, AS35 is R26, AS17 is R28 and AS6 is R18.
as §3

[3] = test system: human monoclonal anti-DNA antibody DIL 6; experiment: Anti-peptide direct binding ELISA with DIL6
Procedure: as §1, §4

[4] = test system: anti-HEL Hy5 control murine antibody; experiment: Direct binding ELISA with control murine antibody; settings: data not shown
Procedure: as §1, §2

[5] = test system: C72 murine anti-DNA antibody; experiment: Competitive inhibition of the binding of C72 to 5200; settings: after incubation of C72 with the inhibiting agent
Procedure: The binding of C72 to 5200 was tested before and after incubation with 5200, R38, R18, Heparin, DNA and DNase. […] The percent inhibition is the percent reduction of the O.D. after incubation with the inhibiting agent.

[6] = target: C72 anti-DNA antibody; experiment: Competitive inhibition of C72 binding to R38 (5100); parameters: species or system murine; settings: concentration of competitive inhibitor giving 50% inhibition, ELISA
Text: A competitive inhibition study compared how each of the peptides competes with R38 (5100) for binding to the C72 anti-DNA antibody. Conducted according to the methods described hereinabove, the results of the study are disclosed in Table 4 below and are further elucidated by reference to FIG. 10.

[7] = test system: MRL/1pr/1pr urine antibodies; experiment: Binding of murine urinary immunoglobulins, MRL/1pr/1pr urine; parameters: species or system mice
Procedure: as §1
(§5) Thus, pooled urine from at least 5 mice (either MRL/1pr/1pr or control mice, e.g. BALB/c) was added to wells coated with R38′ (5200), R18 or DNA as described above and bound 5200 assayed by ELISA.
(§6) Each group is comprised of pooled urine.

[8] = test system: BALB/c urinary immunoglobulins; experiment: Binding of murine urinary immunoglobulins, BALB/c control urine; settings: pooled urine of BALB/c control mice
Procedure: as §1, §5, §6

[9] = test system: MRL/1pr/1pr mice; experiment: Clinical course of murine SLE (survival, renal histology); assay type: in vivo; settings: for renal histology by light microscopy: two mice sacrificed after 5 months, controls severe diffuse proliferative glomerulonephritis
Procedure: To test whether R38 peptides can affect the course of SLE we have tested their effect on MRL/1pr/1pr mice disease. 60 μg of 5200 (R38′ alone or in peptide combinations, 30 μg of each) in 0.1 ml PBS, was injected i.p. to 6 week old female MRL/1pr/1pr mice once a week for 16 weeks and the mice were evaluated for survival (FIG. 8), and for renal histology.
50 μg of 5100 (R38) or 5300 (human R38) in 0.1 ml PBS, was injected i.p. to 6 week old MRL/1pr/1pr mice three times a week and the mice were evaluated for survival (FIG. 9), and for renal histology. Control mice received 0.1 ml phosphate buffer solution. Each test and control group contained 12-15 mice.
The survival of MRL/1pr/1pr mice treated with 5100, 5200 or 5300 was compared to that of PBS treated mice. […] In FIGS. 8 and 9 the time in days shown on the x axis relates to the age of the mice. Two mice in each group were sacrificed after 5 months and their kidneys evaluated by light microscopy.

[10] = test system: urine antibodies of lupus patients; experiment: Urine anti-peptide antibody ELISA in patients; assay type: binding, human
[11] = target: 5101 peptide (Res. 1-16 of 5100) (mouse); experiment: direct binding ELISA, peptide-coated wells, read after two hours
[12] = target: 5102 peptide (Res. 6-17 of 5100) (mouse); experiment: as above
[13] = target: 5200 peptide (R38′), mouse R38 analog; experiment: as above
5200 peptide (R38′), mouse R38 analog, sequence (peptide, as listed by the source): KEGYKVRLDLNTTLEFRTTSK

[14] = target: 5300 peptide, human R38 (human); experiment: as above
5300 peptide, human R38 (human), sequence (peptide, as listed by the source): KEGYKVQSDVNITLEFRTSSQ

[15] = target: R38 peptide (5100), mouse R38 (mouse); experiment: as above
[16] = test system: urine antibodies of lupus patients; experiment: Urine anti-peptide antibody ELISA in patients; assay type: binding, human; settings: Example 5
Procedure: as §1
Activity of the disease was evaluated also by accepted clinical and serological parameters (Lockshin M. D. et al. Am. J. Med (1984) 77 893-898) and their correlation with anti-R38 levels was compared. 103 urine samples of 37 SLE patients were tested for anti-R38 activity by ELISA as described above. 23 of the samples were from patients without renal disease and 80 samples from patients with renal disease. A further 12 samples from patients with renal disease not related to SLE were also included.

[17] = test system: C72 antibody; experiment: Affinity absorption on R38 column, C72 sample; assay type: binding, mouse
Procedure: (§7) The R38 peptide was dissolved in the coupling buffer (0.2M NaHCO3, 0.5M NaCl, pH 8.3) in a concentration of 1 mg/ml in 5 ml coupling buffer. A 5 ml N-hydroxysuccinimide (NHS)-activated Sepharose™ High Performance Column (Pharmacia 17-0717-01) is used. The isopropanol in the column was washed out from the column with 30 ml of cold (4° C.) 1 mM HCl and 5 ml of the peptide solution was then injected onto the column with a syringe (2.5 ml/minute). The column was sealed and stood for 30 minutes at room temperature. The column was then washed with 30 ml Buffer A (0.5 M ethanolamine, 0.5 M NaCl, pH 8.3) and 30 ml Buffer B (0.5 M acetate, 0.5 M NaCl, pH 4) consecutively three times, and then with neutral pH buffer (0.05 M Na2HPO4 and 0.1% NaN3).
The column was washed with 15 ml PBS (phosphate buffered saline), followed by 15 ml elution buffer (0.1 M glycine HCl) and then 50 ml PBS. The C72 antibody or the patients' plasma samples were filtered through a 0.45 microm filter. The samples were applied onto the column by a fitted syringe at a rate of 2.5 ml/min. The column was then washed with 5 ml PBS and the flow-through was applied to the column again. […]
(§8) In the instant example, the mouse C72 and the SLE patients' plasma were applied to the R38 column. Their anti-R38 binding was evaluated by ELISA in the original samples and in the flow-through of the column.

[18] = test system: anti-R38 antibodies in human plasma; experiment: Affinity absorption on R38 column, human plasma samples; assay type: binding; settings: for Binding to R38 (O.D.), Original sample: before column; for Binding to R38 (O.D.), After immunoabsorption: flow-through of R38 column
Procedure: as §7
The column was washed with 15 ml PBS (phosphate buffered saline), followed by 15 ml elution buffer (0.1 M glycine HCl) and then 50 ml PBS. The C72 antibody or the patients' plasma samples were filtered through a 0.45 microm filter. The samples were applied onto the column by a fitted syringe at a rate of 2.5 ml/min. The column was then washed with 5 ml PBS and the flow-through was applied to the column again. The binding of the samples (original and flow-through) to R38 was tested by the anti-R38 ELISA test.
as §8

Compound: CC(C)C[C@H](NC(=O)[C@H](CC(=O)O)NC(=O)[C@H](CC(C)C)NC(=O)[C@H](CCCNC(=N)N)NC(=O)[C@@H](NC(=O)[C@H](CCCCN)NC(=O)[C@H](Cc1ccc(O)cc1)NC(=O)CNC(=O)[C@H](CCC(=O)O)NC(=O)[C@@H](N)CCCCN)C(C)C)C(=O)N[C@@H](CC(N)=O)C(=O)N[C@H](C(=O)N[C@H](C(=O)N[C@@H](CC(C)C)C(=O)N[C@@H](CCC(=O)O)C(=O)N[C@@H](Cc1ccccc1)C(=O)N[C@@H](CCCNC(=N)N)C(=O)N[C@H](C(=O)N[C@H](C(=O)N[C@@H](CO)C(=O)N[C@@H](CCCCN)C(=O)O)[C@@H](C)O)[C@@H](C)O)[C@@H](C)O)[C@@H](C)O (stereo in doubt) [Peptide 5200]
binding of C72 murine anti-DNA antibody to laminin peptides (FIG. 1) ([1]; ELISA, C72 conditioned medium in various dilutions): binding | C72 Binding [1]: 1.8 O.D. | binding of B3 to laminin peptides (FIGS. 3 and 4) [2]: bind | B3 Binding [2]: 0.25 O.D. | binding of DIL 6 to laminin peptides (FIGS. 3 and 4) [3]: bind | binding of control antibody anti-HEL Hy5 [4]: did not bind | inhibition of the binding of C72 to 5200 (FIG. 2) [5]: inhibition | 50% Inhibition of C72 binding to mouse R38 (5100) [6]: 10 µg/mL | interaction of MRL/1pr/1pr urine antibodies with peptide ([7]; direct binding ELISA): specific binding | Binding of murine urinary immunoglobulins to antigen ([7]; pooled urine of MRL/1pr/1pr mice): 0.26(*) O.D. at 405 nm | Binding of murine urinary immunoglobulins to antigen [8]: U.D. | survival versus PBS control mice (FIG. 8) ([9]; 60 μg i.p. once a week for 16 weeks, 6 week old female mice): significantly higher | renal histology by light microscopy ([9]; 60 μg i.p. once a week): mild proliferative changes with no crescents and no sclerosis | Urine anti-5200 O.D. (Mean + S.E.) ([10]; Example 6, renal disease absent, 46 samples): 0.05 ± 0.005 O.D. | Urine anti-5200 O.D. (Mean + S.E.) ([10]; Example 6, renal disease present, 132 samples, p < 0.001): 0.335 ± 0.035 O.D. | Urine anti-5200 O.D. (Mean + S.E.) ([10]; Example 8, renal disease absent, 6 samples): 0.052 ± 0.03 O.D. | Urine anti-5200 O.D. (Mean + S.E.) ([10]; Example 8, renal disease present, 46 samples): 0.431 ± 0.09 O.D.

O.D. in a direct binding ELISA [11]: 0.1 O.D. | O.D. in a direct binding ELISA [12]: 0.02 O.D. | O.D. in a direct binding ELISA [13]: 0.25 O.D. | O.D. in a direct binding ELISA [14]: 0.03 O.D. | O.D. in a direct binding ELISA [15]: 0.9 O.D.
Compound: B3 human monoclonal anti-DNA antibody

Compound: KEGYKVRLDLNITLEFRTTSK [Peptide 5100]
C72 Binding [1]: 2.57 O.D. | B3 Binding [2]: 0.9 O.D. | inhibition of the binding of C72 to 5200 (FIG. 2) [5]: inhibition | 50% Inhibition of C72 binding to mouse R38 (5100) [6]: 10 µg/mL | Urine anti-R38 O.D. (Mean + S.E.) ([16]; SLE absent, renal disease present, 12 samples): 0.07 ± 0.01 O.D. | Urine anti-R38 O.D. (Mean + S.E.) ([16]; SLE present, renal disease absent, 23 samples): 0.035 ± 0.003 O.D. | Urine anti-R38 O.D. (Mean + S.E.) ([16]; SLE present, renal disease present, 80 samples, p < 0.001): 0.229 ± 0.03 O.D. | survival versus PBS control mice (FIG. 9) ([9]; 50 μg i.p. three times a week, 6 week old mice): significantly higher | renal histology by light microscopy ([9]; 50 μg i.p. three times a week): mild proliferative changes with no crescents and no sclerosis | Binding to R38 (O.D.), Original sample ([17]; sample C72, before column): 1.96 O.D. | Binding to R38 (O.D.), After immunoabsorption ([17]; sample C72, flow-through of R38 column): 0.02 O.D. | Binding to R38 (O.D.), Original sample ([18]; Healthy donor's plasma): 0.26 O.D. | Binding to R38 (O.D.), After immunoabsorption ([18]; Healthy donor's plasma): 0.06 O.D. | Binding to R38 (O.D.), Original sample ([18]; SLE patient 1 plasma): 1.5 O.D. | Binding to R38 (O.D.), After immunoabsorption ([18]; SLE patient 1 plasma): 0.6 O.D. | Binding to R38 (O.D.), Original sample ([18]; SLE patient 2 plasma): 2.3 O.D. | Binding to R38 (O.D.), After immunoabsorption ([18]; SLE patient 2 plasma): 1.6 O.D. | Urine anti-5100 O.D. (Mean + S.E.) ([10]; Example 7, renal disease absent, 6 samples): 0.058 ± 0.006 O.D. | Urine anti-5100 O.D. (Mean + S.E.) ([10]; Example 7, renal disease present, 39 samples, p < 0.03): 0.376 ± 0.05 O.D.
